Test results as given in US11091482B2, “Isoxazolyl-carbonyloxy azabicyclo[3.2.1]octanyl compounds as FXR activators” (ARDELYX, INC., priority 2016, dated 2021).

What was measured:
[1] = target: human Farnesoid X receptor ligand-binding domain/Gal4 DNA binding domain chimera (Homo sapiens (Human), UniProt Q96RI1); assay: Cell-based FXR beta-lactamase reporter assay (FXR-UAS-bla HEK 293T cells); conditions: for Emax: HEK-293T, read-out: % Efficacy; for EC50 / FXR pEC50 / % Efficacy: cellular FXR beta-lactamase reporter assay; for EC50 / FXR pEC50: -log EC50; for EC50: read-out: FXR pEC50 (converted); for % Efficacy: extent of activation relative to GW4064
Description: FXR activation was measured using a cell line and procedure obtained from Life Technologies (Cat #K1691). FXR-UAS-bla HEK 293T cells contain a human Farnesoid X receptor ligand-binding domain/Gal4 DNA binding domain chimera stably integrated into the CellSensor® UAS-bla HEK 293T cell line. The CellSensor® UAS-bla HEK 293T contains a beta-lactamase reporter gene under control of a UAS response element stably integrated into HEK 293T cells. Activation of FXR by bound ligands results in transcriptional activation of the beta-lactamase reporter gene, which is detected via assay of beta-lactamase activity. Cells are harvested and diluted into assay medium containing phenol red-free DMEM supplemented with 2% Charcoal-stripped FBS, pyruvate, non-essential amino acids. Cells are then transferred to a 384 well assay plate. Test compounds are dissolved in DMSO and a 3-fold serial dilution series is generated, then further diluted into assay medium. […] A FRET-based […] is loaded into cells as its acetomethoxy ester. Intracellular esterases liberate free CCF4, a cephalosporin core linking 7-hydroxycoumarin to fluorescein. In the presence of beta-lactamase activity produced in the presence of FXR agonists, cleavage of CCF4 spatially separates the two dyes and disrupts FRET, so that exciting the coumarin at 409 nm now produces a blue fluorescence signal at 447 nm. The change in FRET signal is plotted against the test compound concentration and fit to a 3-parameter logistical equation.

[2] = target: ligand binding domain of human FXR (Homo sapiens (Human), UniProt Q96RI1); assay: FXR ligand binding assay (LanthaScreen FRET); conditions: for Emax: read-out: % Efficacy; for % Efficacy: extent of activation relative to GW4064;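 for all read-outs here: TR-FRET coactivator recruitment: ligand-induced binding of fluorescein-labelled SRC2-2 peptide to GST-tagged FXR LBD detected via Tb anti-GST antibody, serial compound dilutions, 3-parameter logistic fit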
[3] = FXR ligand binding assay, -log EC50

ligand binding domain of human FXR, sequence (Q96RI1 262-486): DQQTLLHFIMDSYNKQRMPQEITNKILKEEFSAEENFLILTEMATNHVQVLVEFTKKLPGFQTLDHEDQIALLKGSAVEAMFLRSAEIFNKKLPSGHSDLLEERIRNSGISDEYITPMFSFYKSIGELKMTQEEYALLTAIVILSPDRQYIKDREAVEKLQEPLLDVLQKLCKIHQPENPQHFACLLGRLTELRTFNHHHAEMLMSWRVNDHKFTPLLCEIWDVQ
human Farnesoid X receptor ligand-binding domain/Gal4 DNA binding domain chimera, sequence (Q96RI1 262-486, stated change not applied): as the sequence (Q96RI1 262-486) above

Row | FXR pEC50 [1] | % Efficacy ([2]; FXR ligand binding assay) | Structure (SMILES) | Emax [1] | EC50 [1] | Emax [2] | EC50 ([2]; FXR ligand binding assay, -log EC50, read-out: FXR pEC50 (converted)) | FXR pEC50 [2, 3] | % Efficacy [1]
1 |  |  | O=C(O)c1cc(OC(F)(F)F)c2nc(N3[C@@H]4CC[C@H]3C[C@@H](OC(=O)c3c(-c5c(Cl)cccc5Cl)noc3C3CC3)C4)sc2c1 [Compound I-9, 2-[(1R,3R,5S)-3-[5-cyclopropyl-3-(2,6-dichlorophenyl)-1,2-oxazole-4-carbonyloxy]-8-azabicyclo[3.2.1]octan-8-yl]-4-(trifluoromethoxy)-1,3-benzothiazole-6-carboxylic Acid] | 119% | 3.16 nM | 136% |  |  | 
2 |  |  | O=C(O)c1ccc(N2[C@@H]3CC[C@H]2C[C@@H](OC(=O)c2c(-c4c(Cl)cccc4OC(F)F)noc2C2CC2)C3)c(F)c1 [Compound I-43, 4-[(1R,3R,5S)-3-{3-[2-chloro-6-(difluoromethoxy)phenyl]-5-cyclopropyl-1,2-oxazole-4-carbonyloxy}-8-azabicyclo[3.2.1]octan-8-yl]-3-fluorobenzoic Acid] | 108% | 39.8 nM | 72% | 50.1 nM |  | 
3 |  |  | CCCS(=O)(=O)NC(=O)c1cc(F)c2nc(N3[C@@H]4CC[C@H]3C[C@@H](OC(=O)c3c(-c5c(Cl)cccc5Cl)noc3C3(F)CC3)C4)sc2c1 [Compound I-62, (1R,3R,5S)-8-{4-fluoro-6-[(propane-1-sulfonyl)carbamoyl]-1,3-benzothiazol-2-yl}-8-azabicyclo[3.2.1]octan-3-yl 3-(2,6-dichlorophenyl)-5-(1-fluorocyclopropyl)-1,2-oxazole-4-carboxylate] | 107% | 20 nM | 145% |  | 7.4 | 
4 |  |  | O=C(O)c1ccc(N2[C@@H]3CC[C@H]2C[C@@H](OC(=O)c2c(-c4c(Cl)cccc4Cl)noc2C2CC2)C3)cc1C(F)(F)F [Compound I-37, 4-[(1R,3R,5S)-3-[5-cyclopropyl-3-(2,6-dichlorophenyl)-1,2-oxazole-4-carbonyloxy]-8-azabicyclo[3.2.1]octan-8-yl]-2-(trifluoromethyl)benzoic acid] | 93% | 100 nM | 50% |  | 7.7 | 
5 |  |  | O=C(O)c1cc(F)cc(N2[C@@H]3CC[C@H]2C[C@@H](OC(=O)c2c(-c4c(Cl)cccc4Cl)noc2C2CC2)C3)c1 [Compound I-42, 3-[(1R,3R,5S)-3-[5-cyclopropyl-3-(2,6-dichlorophenyl)-1,2-oxazole-4-carbonyloxy]-8-azabicyclo[3.2.1]octan-8-yl]-5-fluorobenzoic acid] | 85% | 79.4 nM | 38% |  | 8 | 
6 | 7.5 | 64% | O=C(O)c1cc(F)c2nc(N3[C@@H]4CC[C@H]3C[C@@H](OC(=O)c3c(-c5c(Cl)cccc5Cl)noc3C3CCC3)C4)sc2c1 [Compound I-24, 2-[(1R,3R,5S)-3-[5-cyclobutyl-3-(2,6-dichlorophenyl)-1,2-oxazole-4-carbonyloxy]-8-azabicyclo[3.2.1]octan-8-yl]-4-fluoro-1,3-benzothiazole-6-carboxylic Acid] |  |  |  |  | 7.9 | 98%
7 | 8.4 | 107% | O=C(O)c1cc(F)c2nc(N3[C@@H]4CC[C@H]3C[C@@H](OC(=O)c3c(-c5c(Cl)cccc5Cl)noc3C3(F)CC3)C4)sc2c1 [Compound I-27, 2-[(1R,3R,5S)-3-[3-(2,6-dichlorophenyl)-5-(1-fluorocyclopropyl)-1,2-oxazole-4-carbonyloxy]-8-azabicyclo[3.2.1]octan-8-yl]-4-fluoro-1,3-benzothiazole-6-carboxylic Acid] |  |  |  |  | 8.2 | 108%
8 |  |  | CS(=O)(=O)NC(=O)c1ccc(N2[C@@H]3CC[C@H]2C[C@@H](OC(=O)c2c(-c4c(Cl)cccc4Cl)noc2C2CC2)C3)c(F)c1 [Compound I-51, (1R,3R,5S)-8-[2-fluoro-4-(methanesulfonylcarbamoyl)phenyl]-8-azabicyclo[3.2.1]octan-3-yl 5-cyclopropyl-3-(2,6-dichlorophenyl)-1,2-oxazole-4-carboxylate] | 105% | 5.01 nM | 139% |  |  | 
9 | >4.5 | 22% | COC12CCC(c3noc(C4CC4)c3C(=O)O[C@@H]3C[C@H]4CC[C@@H](C3)N4c3nc4c(OC(F)(F)F)cc(C(=O)O)cc4s3)(CC1)CC2 [Compound I-58, 2-[(1R,3S,5S)-3-(5-cyclopropyl-3-{4-methoxybicyclo[2.2.2]octan-1-yl}-1,2-oxazole-4-carbonyloxy)-8-azabicyclo[3.2.1]octan-8-yl]-4-(trifluoromethoxy)-1,3-benzothiazole-6-carboxylic Acid] |  |  |  |  | >4.4 | 
10 |  |  | O=C(OCC(=O)N(CCO)CCO)c1cc(F)c2nc(N3[C@@H]4CC[C@H]3C[C@@H](OC(=O)c3c(-c5c(Cl)cccc5Cl)noc3C3CC3)C4)sc2c1 [Compound I-64, [bis(2-hydroxyethyl)carbamoyl]methyl 2-[(1R,3R,5S)-3-[5-cyclopropyl-3-(2,6-dichlorophenyl)-1,2-oxazole-4-carbonyloxy]-8-azabicyclo[3.2.1]octan-8-yl]-4-fluoro-1,3-benzothiazole-6-carboxylate] |  | < 31.6 nM | 32% |  | 6.6 | 
11 |  |  | Cc1cc(C(=O)O)cc2sc(N3[C@@H]4CC[C@H]3C[C@@H](OC(=O)c3c(-c5c(Cl)cccc5Cl)noc3C3(F)CC3)C4)nc12 [Compound I-59, 2-[(1R,3R,5S)-3-[3-(2,6-dichlorophenyl)-5-(1-fluorocyclopropyl)-1,2-oxazole-4-carbonyloxy]-8-azabicyclo[3.2.1]octan-8-yl]-4-methyl-1,3-benzothiazole-6-carboxylic Acid] | 105% | 39.8 nM | 95% |  |  | 
12 |  |  | O=C(O)c1ccc(N2[C@@H]3CC[C@H]2C[C@@H](OC(=O)c2c(-c4c(Cl)cccc4Cl)noc2C2CC2)C3)c(Cl)c1 [Compound I-36, 3-chloro-4-[(1R,3R,5S)-3-[5-cyclopropyl-3-(2,6-dichlorophenyl)-1,2-oxazole-4-carbonyloxy]-8-azabicyclo[3.2.1]octan-8-yl]benzoic acid] | 99% | 158 nM | 106% |  | 7.3 | 

Row | Structure (SMILES) | FXR pEC50 [1] | % Efficacy ([2]; FXR ligand binding assay) | Emax [1] | EC50 [1] | Emax [2] | EC50 ([2]; FXR ligand binding assay, -log EC50, read-out: FXR pEC50 (converted)) | FXR pEC50 [2, 3] | % Efficacy [1]
13 | O=C(O)c1cc(F)c2nc(N3[C@@H]4CC[C@H]3C[C@@H](OC(=O)c3c(C5CCC6(CC5)CC6)noc3C3CC3)C4)sc2c1 [Compound I-19, 2-[(1R,3R,5S)-3-(5-cyclopropyl-3-{spiro[2.5]octan-6-yl}-1,2-oxazole-4-carbonyloxy)-8-azabicyclo[3.2.1]octan-8-yl]-4-fluoro-1,3-benzothiazole-6-carboxylic Acid] | 6.8 | 55% |  |  |  |  | 7.2 | 79%
14 | O=C(O)c1cc(F)c2nc(N3[C@@H]4CC[C@H]3C[C@@H](OC(=O)c3c(-c5c(F)cccc5F)noc3C3CC3)C4)sc2c1 [Compound I-16, 2-[(1R,3R,5S)-3-[5-cyclopropyl-3-(2,6-difluorophenyl)-1,2-oxazole-4-carbonyloxy]-8-azabicyclo[3.2.1]octan-8-yl]-4-fluoro-1,3-benzothiazole-6-carboxylic Acid] | 6.7 | 47% |  |  |  |  | 7.4 | 110%
